Data as given in patent publication US20240216357A1 (SICHUAN HUIYU PHARMACEUTICAL CO., LTD., priority 2021, published 2024).
Where a name gives a salt, the structure may show the parent alone. Read-outs that look alike come from different tables or passages of the source. Values belong to the compound of their own block, whether it stands above or below them.

Legend:
NCI-H1417 cells = test: In vitro cell proliferation detection (CellTiter-Glo, 7 days); format: cell-based; conditions: NCI-H1417 cells, 7 days, CellTiter-Glo, read-out: NCI-H1417 proliferation inhibition IC50
Caco-2 cells = test: Caco-2 permeability test; conditions: for Mean Papp A to B: Caco-2, A to B; for Mean Papp A to B / Mean Papp B to A: 120 min; for Mean Papp B to A: Caco-2, B to A
CYP3A4 [1] = target: T1, CYP3A4 (Homo sapiens (Human), UniProt P08684); test: CYP 450 enzyme inhibition test (mixed human liver microsomes, LC-MS/MS); conditions: read-out: CYP3A4-T IC50; mixed human liver microsomes, NADPH, CYP3A4-T probe substrate
T1 sequence (P08684 whole entry): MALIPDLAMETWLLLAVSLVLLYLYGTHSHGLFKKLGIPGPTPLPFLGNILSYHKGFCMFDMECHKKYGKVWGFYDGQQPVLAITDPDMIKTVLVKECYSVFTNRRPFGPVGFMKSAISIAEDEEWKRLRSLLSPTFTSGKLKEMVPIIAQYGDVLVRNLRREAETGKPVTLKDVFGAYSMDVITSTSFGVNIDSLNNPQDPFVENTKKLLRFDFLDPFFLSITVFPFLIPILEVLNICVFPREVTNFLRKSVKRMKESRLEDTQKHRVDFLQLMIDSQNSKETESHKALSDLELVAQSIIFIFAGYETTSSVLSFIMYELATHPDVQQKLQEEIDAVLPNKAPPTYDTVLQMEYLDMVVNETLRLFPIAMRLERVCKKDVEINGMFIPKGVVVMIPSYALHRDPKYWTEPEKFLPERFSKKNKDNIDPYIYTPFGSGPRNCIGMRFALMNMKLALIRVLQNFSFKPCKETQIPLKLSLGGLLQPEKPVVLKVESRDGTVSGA

Rat PK test (IV and PO) = conditions: for Cl / F: Male SD rats; for F: PO vs IV; for AUC(0-inf) / Cmax / half-life / Vd: male, SD, rat, plasma; for Vd: intravenous
Caco-2 permeability test = conditions: human, Caco-2
[2] = rat, in vivo; for F: male, SD
CYP3A4 [3] = target: T1, CYP3A4; conditions: microsomes
LSD1 = LSD1 (Homo sapiens (Human), UniProt O60341); test: LSD1 enzyme activity detection (HTRF); format: biochemical; conditions: HTRF, H3K4me1 substrate; read-out: Inhibition of enzymatic activity of LSD1 IC50
[4] = target: T2, voltage-gated potassium ion channel hERG (Homo sapiens (Human), UniProt Q12809)
T2 sequence (Q12809 whole entry): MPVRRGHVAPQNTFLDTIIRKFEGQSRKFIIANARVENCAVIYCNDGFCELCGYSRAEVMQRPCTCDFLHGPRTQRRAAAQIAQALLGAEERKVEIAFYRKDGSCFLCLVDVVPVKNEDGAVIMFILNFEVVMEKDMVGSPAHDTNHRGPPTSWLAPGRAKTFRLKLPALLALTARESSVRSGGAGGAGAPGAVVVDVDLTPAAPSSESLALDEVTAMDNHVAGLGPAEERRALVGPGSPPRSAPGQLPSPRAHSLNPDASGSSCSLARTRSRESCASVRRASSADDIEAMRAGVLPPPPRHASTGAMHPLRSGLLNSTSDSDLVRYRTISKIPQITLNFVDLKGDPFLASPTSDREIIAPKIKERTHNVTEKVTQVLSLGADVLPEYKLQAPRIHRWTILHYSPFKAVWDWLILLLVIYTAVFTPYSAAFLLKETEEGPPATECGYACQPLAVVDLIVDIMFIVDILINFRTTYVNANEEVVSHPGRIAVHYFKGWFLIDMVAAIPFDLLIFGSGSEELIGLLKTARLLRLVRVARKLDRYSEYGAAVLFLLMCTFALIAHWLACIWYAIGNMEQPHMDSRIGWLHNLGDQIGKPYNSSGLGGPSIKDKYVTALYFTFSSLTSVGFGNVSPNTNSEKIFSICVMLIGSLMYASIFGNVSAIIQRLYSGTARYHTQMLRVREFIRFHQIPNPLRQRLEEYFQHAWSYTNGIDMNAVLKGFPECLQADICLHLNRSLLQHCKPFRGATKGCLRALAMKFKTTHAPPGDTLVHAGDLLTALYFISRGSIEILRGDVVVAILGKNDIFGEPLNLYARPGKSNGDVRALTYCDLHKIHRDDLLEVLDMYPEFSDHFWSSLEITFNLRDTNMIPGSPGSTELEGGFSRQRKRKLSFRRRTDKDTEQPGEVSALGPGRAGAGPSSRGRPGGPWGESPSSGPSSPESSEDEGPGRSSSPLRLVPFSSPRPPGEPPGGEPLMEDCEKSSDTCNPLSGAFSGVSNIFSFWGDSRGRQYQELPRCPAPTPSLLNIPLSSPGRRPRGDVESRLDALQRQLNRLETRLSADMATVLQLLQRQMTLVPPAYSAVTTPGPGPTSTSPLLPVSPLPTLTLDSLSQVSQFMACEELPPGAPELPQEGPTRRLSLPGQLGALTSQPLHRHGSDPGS

in vivo = conditions: male, SD, rat
[5] = target: T2, voltage-gated potassium ion channel hERG; test: hERG inhibition test (manual patch-clamp); conditions: read-out: hERG IC50; manual patch-clamp
in vitro = conditions: human, Caco-2
Throughout, for Cmax: test concentration or dose not given here.

SMILES: CS(=O)(=O)N1CCN(c2cc(CCCN[C@@H]3C[C@H]3c3ccc(F)cc3)nc(-c3ccc(C#N)cc3)n2)CC1 [Example 261, 4-(4-(3-(1R,2S)-2-(4-fluorophenyl)cyclopropyl)amino)-6-(4-(methylsulfonyl)piperazin-1-yl)pyri midin-2-yl)benzonitrile formate]
- IC50 (NCI-H1417 cells): 3.22 nM
- Efflux Ratio (Caco-2 cells; Caco-2): 1.38
- Mean Papp A to B (Caco-2 cells): 0.49 10^−6 cm/s
- Mean Papp B to A (Caco-2 cells): 0.67 10^−6 cm/s

- IC50 (CYP3A4 [1]): > 50000 nM
- Cl (Rat PK test (IV and PO)): 94.5 mL/min/kg
- F (Rat PK test (IV and PO)): 14.3%
- AUC(0-inf) (Rat PK test (IV and PO)): 132 ng·h/mL
- Cmax (Rat PK test (IV and PO)): 26 ng/mL
- half-life (Rat PK test (IV and PO)): 2.32 h
- Vd (Rat PK test (IV and PO)): 19.1 L/kg
- Papp A→B at 120 min (Caco-2 permeability test): 7.26 ×10⁻⁶ cm/s
- Papp B→A at 120 min (Caco-2 permeability test): 41 ×10⁻⁶ cm/s
SMILES: COc1ccc(-c2c(-c3ccc(C#N)c(F)c3)nc(N3CCC(N)CC3)n(C)c2=O)cc1F [(CC90011), reference compound]

SMILES: Cc1noc2cc(-c3c(-c4ccc(C#N)c(F)c4)nc(N4C5CCC4CC(N)C5)n4ccnc34)c(F)cc12 (stereo not drawn) [Example 118, 4-(5-(3-amino-8-azabicyclo [3.2.1]octane-8-yl)-8-(5-fluoro-3-methylbenzo[d]isoxazol-6-yl)imidazolo[1,2 c]pyrimidin-7-yl)-2-fluorobenzonitrile]
- F [2]: 12.1%
- Cl [2]: 56.1
- IC50 (CYP3A4 [3]): 8680 nM
- IC50 (LSD1): 0.27 ± 0.01 nM
- IC50 (NCI-H1417 cells; Homo sapiens, 168 h): 0.6 nM
- IC50 [4]: 13200 nM
- AUC(0-inf) (in vivo): 192 ng·h/mL
- Cmax (in vivo): 26.9 ng/mL
- Vd (in vivo): 20 L/kg
- half-life (in vivo): 4.67 h

SMILES: N#Cc1ccc(-c2nc(N3C4CCC3CC(N)C4)n3ccnc3c2-c2cc3c(cc2F)OCO3)cc1F (stereo not drawn) [Example 175, 4-(5-(3-amino-8-azabicyclo[3.2.1]octane-8-yl)-8-(6-fluorobenzo[d] [1,3]dioxane-5- -yl)imidazolo [1,2-c]pyrimidin-7-yl)-2-fluorobenzonitrile hydrochloride]
- IC50 (CYP3A4 [3]): 8080 nM
- IC50 (LSD1): 3.2 ± 2.1 nM
- IC50 (NCI-H1417 cells; Homo sapiens, 168 h): 4.13 nM

SMILES: CS(=O)(=O)N1CCN(C(=O)c2cc(CCCN[C@@H]3C[C@H]3c3ccc(F)cc3)nc(-c3ccc(-n4cccn4)cc3)n2)CC1 [Example 257, (2-(4-(1H-pyrazol-1-yl)phenyl)-6-(3-((1R,2S)-2-(4-fluorophenyl)cyclopropyl)amino)pyrimidin-4-yl)(4-(methylsulfonyl)piperazin-1-yl)methanone]
- IC50 [5]: 2830 nM
- Mean Papp A to B (Caco-2 cells): 1.54 10^−6 cm/s
- Mean Papp B to A (Caco-2 cells): 4.55 10^−6 cm/s

- IC50 (CYP3A4 [1]): 49900 nM
- IC50 (LSD1): 0.35 ± 0.09 nM
- IC50 (NCI-H1417 cells; Homo sapiens, 168 h): 0.386 nM
- Cl (Rat PK test (IV and PO)): 60.6 mL/min/kg
- F (Rat PK test (IV and PO)): 21.8%
- AUC(0-inf) (Rat PK test (IV and PO)): 323 ng·h/mL
- Cmax (Rat PK test (IV and PO)): 65 ng/mL
- half-life (Rat PK test (IV and PO)): 2.58 h
- Vd (Rat PK test (IV and PO)): 14.7 L/kg
- Papp A→B at 120 min (Caco-2 permeability test): 4.27 ×10⁻⁶ cm/s
- Papp B→A at 120 min (Caco-2 permeability test): 25 ×10⁻⁶ cm/s
- efflux ratio at 120 min (Caco-2 permeability test): 5.84
SMILES: Cc1noc2cc(-c3c(-c4ccc(C#N)c(F)c4)nc(N4CCC(N)CC4)n4ccnc34)c(F)cc12 [Example 125, 4-(5-(4-aminopiperidin-1-yl)-8-(5-fluoro-3-methylbenzo[d]isoxazol-6-yl)imidazolo[1,2-c]pyrimidin-7-yl)-2-fluorobenzonitrile]
- IC50 [5]: 9520 nM

SMILES: COc1ccc(-c2c(-c3ccc(C#N)c(F)c3)nc(N3C4CCC3CC(N)C4)n3ccnc23)cc1O (stereo not drawn) [Example 155, 4-(5-(3-amino-8-azadicyclo[3.2.1]octane-8-yl)-8-(3-hydroxy-4-methoxyphenyl)imidazolo[1,2-c]pyrimidin-7-yl)-2-fluorobenzonitrile hydrochloride]
- IC50 (CYP3A4 [3]): 18000 nM
- IC50 (LSD1): 0.2 ± 0.1 nM
- IC50 (NCI-H1417 cells; Homo sapiens, 168 h): 0.352 nM

SMILES: Cc1noc2cc(-c3sc(C(=O)N4C5CCC4CC(N)C5)nc3-c3ccc(C#N)c(F)c3)c(F)cc12 (stereo not drawn) [Example 220, 4-(2-(3-amino-8-azabicyclo[3.2.1]octane-8-carbonyl)-5-(5-fluoro-3-methylbenzo[d]isoxazol-6-yl)thiazol-4-yl)-2-fluorobenzonitrile hydrochloride]
- IC50 (LSD1): 0.42 ± 0.06 nM
- IC50 (NCI-H1417 cells; Homo sapiens, 168 h): 1.32 nM
- Papp A→B at 120 min (in vitro): 2.3 ×10⁻⁶ cm/s
- Papp B→A at 120 min (in vitro): 6.21 ×10⁻⁶ cm/s
- efflux ratio at 120 min (in vitro): 2.7

SMILES: N#CCn1ncc2cc(F)c(-c3sc(C(=O)N4C5CCC4CC(N)C5)cc3-c3ccc(C#N)c(F)c3)cc21 (stereo not drawn) [Example 215, 4-(5-(3-amino-8-azabicyclo [3.2.1]octan-8-carbonyl)-2-(1-(cyanomethyl)-5-fluoro-1H-indazol-6-yl)thiophen-3-yl)-2-fluoro-benzonitrile]
- IC50 (LSD1): 0.45 ± 0.05 nM
- IC50 (NCI-H1417 cells; Homo sapiens, 168 h): 4.19 nM
- IC50 [4]: 11400 nM

SMILES: COc1ccc(-c2c(-c3ccc(C#N)c(F)c3)nc(N3C4CCC3CC(N)C4)n3ccnc23)cc1F (stereo not drawn) [Example 120, 4-(5-(3-amino-8-azabicyclo[3.2.1]octane-8-yl)-8-(3-fluoro-4-methoxyphenyl)imidazolo[1,2-c]pyrimidin-7-yl)-2-fluorobenzonitrile]
- F [2]: 14.4%
- Cl [2]: 39.9
- IC50 (CYP3A4 [3]): 8930 nM
- IC50 (LSD1): 0.77 ± 0.43 nM
- IC50 (NCI-H1417 cells; Homo sapiens, 168 h): 2.08 nM
- IC50 [4]: 7830 nM
- Papp A→B at 120 min (in vitro): 2.88 ×10⁻⁶ cm/s
- Papp B→A at 120 min (in vitro): 7.37 ×10⁻⁶ cm/s
- efflux ratio at 120 min (in vitro): 2.56
- AUC(0-inf) (in vivo): 310 ng·h/mL
- Cmax (in vivo): 34.7 ng/mL
- Vd (in vivo): 14.5 L/kg
- half-life (in vivo): 4.82 h
